According to patent US20070167488A1, “Novel therapeutic use” (Leo Pharma A/S, priority 2003, published 2007):

Test system: IL-2
Assay: Inhibition of IL-2 production in phytohemagglutinin-activated human PBMCs (sandwich ELISA)
Format: cell-based
Conditions: Homo sapiens, PBMC, 46 h, approximately 46 hours, read-out: IL-2 pIC50 (converted)
Experimental: Peripheral blood mononuclear cells (PBMCs) were isolated from human blood. The lymphocytes, a fraction of the PBMCs, were activated to secrete IL-2 using the polyclonal mitogen phytohemagglutinin. The test compounds were added in concentrations from 10^−5 to 10^−10, and the cells (10^6/ml) were incubated in microtiter wells at 37° C. for approximately 46 hours.
After 46 hours the cells were centrifuged down for 25 minutes at 1000×g and the supernatants were transferred to transferred to microtiter wells precoated with a monoclonal antibody against human IL-2. The IL-2 concentration in the supernatants was determined by a sandwich ELISA. Microtiter plates were coated (1 μg/ml) with a monoclonal antibody (R&D, UK) against human IL-2, washed 4 times, blocked with 1% casein buffer for 2 hours and washed 2 times. 100 μl sample was added to each well and incubated overnight. All samples were tested in triplicate. 100 μl IL-2 standards (R&D, UK) at a concentration range of 10000-0 pg/ml were tested in triplicate. After incubation the plates were washed and incubated with biotinylated polyclonal secondary antibody against human IL-2 (R&D, UK) for 45 minutes and thereafter washed 4 times. 100 μl enzyme conjugate, horseradish peroxidase conjugated streptavidin diluted 1:4000 (Zymed, USA), was added to all wells and incubated for 30 minutes. 100 μl OPD substrate (KEM EN TEC-DK) was added and the enzyme/substrate reaction stopped after 10 minutes at room temperature with 50 μl 1 M H2SO4. The colour development (optical density—OD) was determined at 492 nm on an ELISA reader and the background OD at 620 nm subtracted).

Row | Structure (SMILES) | IC50 [nM]
1 | Cc1ccc(C)c(/C=C2/C(=O)Nc3ccccc32)c1 [drawing 112] | 100
2 | CCOC(=O)CCn1cc(/C=C2\C(=O)Nc3ccccc32)c2ccccc21 | 200
3 | Cn1cc(/C(C(=O)O)=C2\C(=O)Nc3ccccc32)c2ccccc21 | 794
4 | O=C1Nc2ccccc2/C1=C\c1cc(Br)ccc1Br | 39.8
5 | O=C1Nc2ccccc2/C1=C\c1cc(Cl)ccc1Cl | 3.16
6 | Cc1cc(C)c(/C=C2\C(=O)Nc3cccc(C)c32)[nH]1 | 39.8
7 | Cc1cc(C(=O)OCc2ccccc2)[nH]c1/C=C1\C(=O)Nc2ccccc21 | 20
8 | COc1ccc(OC)c(/C=C2/C(=O)Nc3cc(Br)ccc32)c1 [drawing 164] | 1
9 | COc1ccc2c(c1)/C(=C/c1c[nH]c3ccccc13)C(=O)N2 | 31.6
10 | O=C1Nc2ccccc2/C1=C\c1ccc(Cl)cc1Cl | 1
11 | Cc1cc(C)c(/C=C2\C(=O)Nc3cccc(C(=O)O)c32)[nH]1 | 100
12 | Cc1cc(C(=O)NCCCc2ccccc2)[nH]c1/C=C1\C(=O)Nc2ccccc21 | 50.1
13 | Cc1ccc2[nH]cc(/C=C3/C(=O)Nc4ccccc43)c2c1 | 20
14 | CCN(CC)CCNC(=O)c1cc(C)c(/C=C2\C(=O)Nc3ccccc32)[nH]1 | 39.8
15 | O=C1Nc2ccc(Cl)cc2/C1=C/c1c[nH]c2ccccc12 | 10
16 | O=C1Nc2c(F)cccc2/C1=C/c1c[nH]c2ccccc12 | 0.316
17 | Cc1cc(C(=O)NCC2(c3ccc(Cl)cc3)CC2)[nH]c1/C=C1\C(=O)Nc2ccccc21 | 63.1
18 | O=C1Nc2ccccc2/C1=C\c1cc(Br)cs1 | 6.31
19 | O=C1Nc2ccccc2/C1=C\c1cccc(F)c1 | 200
20 | COc1ccc(OC)c(/C=C2/C(=O)N(O)c3ccccc32)c1 | 10
21 | Cc1cc(C(=O)NCCO)[nH]c1/C=C1\C(=O)Nc2ccccc21 [drawing 176] | 31.6
22 | COc1ccc(OC)c(/C=C2/C(=O)Nc3c(C#N)cccc32)c1 | 31.6
23 | O=C1Nc2ccccc2/C1=C\c1cccc(Br)c1 | 10
24 | COc1ccc(/C=C2\C(=O)Nc3ccc(Cl)cc32)cc1 | 10

Row | Structure (SMILES) | IC50 [nM]
25 | COc1ccc2c(/C=C3\C(=O)Nc4ccccc43)c[nH]c2c1 | 0.2
26 | Cc1ccc2c(/C=C3/C(=O)Nc4ccccc43)c[nH]c2c1 | 0.1
27 | COc1ccc(OC)c(/C=C2\C(=O)Nc3ccc(Cl)cc32)c1 | 20
28 | O=C1Nc2c(Br)cccc2/C1=C/c1c[nH]c2ccccc12 | 0.2
29 | O=C1Nc2ccccc2/C1=C\c1ccoc1 | 631
30 | Cc1cc(/C=C2/C(=O)Nc3ccccc32)sc1C | 100
31 | O=C1Nc2ccccc2/C1=C/c1c[nH]c2ccc(OCc3ccccc3)cc12 | 10
32 | COc1ncc(/C=C2/C(=O)Nc3ccccc32)c(OC)n1 | 6.31
33 | Cc1[nH]c2ccccc2c1/C=C1/C(=O)Nc2ccccc21 [drawing 197] | 794
34 | COc1ccc2[nH]cc(/C=C3\C(=O)Nc4ccccc43)c2c1 | 10
35 | COc1cc(/C=C2/C(=O)Nc3ccccc32)ccc1O | 100
36 | Cc1[nH]c(/C=C2\C(=O)Nc3ccccc32)c(C)c1Br [drawing 211] | 79.4
37 | O=C1Nc2ccccc2/C1=C\c1ccc(Br)s1 | 20
38 | CCOc1ccc(OCC)c(/C=C2/C(=O)Nc3ccccc32)c1 | 631
39 | Cc1cc(C(=O)NCCCCCO)[nH]c1/C=C1\C(=O)Nc2ccccc21 | 63.1
40 | O=C1Nc2ccccc2/C1=C\c1c[nH]c2c(F)c(F)c(F)c(F)c12 | 2
41 | O=C1Nc2ccc(Cl)cc2/C1=C/c1ccccc1O | 100
42 | CN1CCN(c2c(/C=C3\C(=O)Nc4ccccc43)c3ccccc3n2C)CC1 | 79.4
43 | COC(=O)CCCNC(=O)c1cc(C)c(/C=C2\C(=O)Nc3ccccc32)[nH]1 | 50.1
44 | Cc1cc(C(=O)NCCCCc2ccccc2)[nH]c1/C=C1\C(=O)Nc2ccccc21 | 100
45 | Cc1cc(C)c(/C=C2\C(=O)Nc3cccc(Cl)c32)[nH]1 | 1
46 | COc1ccc(OC)c(/C=C2/C(=O)Nc3c(F)cccc32)c1 | 501
47 | Cc1ccc(/C=C2\C(=O)Nc3ccccc32)cc1C | 50.1

Second part, the compound after the results:

Row | IC50 [nM] | Structure (SMILES)
48 | 79.4 | O=C1Nc2ccccc2/C1=C/c1ccc(Cl)cc1
49 | 10 | Cc1cc(C)c(/C=C2\C(=O)N(O)c3ccccc32)[nH]1 [drawing 224]
50 | 2 | COc1ccc(/C=C2/C(=O)Nc3ccccc32)c(OC)c1
51 | 31.6 | COc1ccc(CN2C(=O)/C(=C\c3[nH]c(C)cc3C)c3ccccc32)cc1
52 | 20 | O=C1Nc2ccccc2/C1=C/c1cccc([N+](=O)[O-])c1
53 | 316 | O=CN1CCN(c2ccc(/C=C3\C(=O)Nc4ccccc43)cc2)CC1
54 | 200 | O=C(O)CCn1cc(/C=C2\C(=O)Nc3ccccc32)c2ccccc21
55 | 10 | COc1ccc(OC)c(/C=C2/C(=O)Nc3c(F)cc(F)cc32)c1
56 | 316 | COc1ccc(O)c(/C=C2/C(=O)Nc3ccccc32)c1
57 | 6.31 | COc1cccc(/C=C2/C(=O)Nc3ccccc32)c1
58 | 50.1 | Cc1[nH]c(/C=C2\C(=O)Nc3cccc(Cl)c32)c(C)c1CCC(=O)O
59 | 20 | O=C1Nc2ccccc2/C1=C/c1ccc(Cl)c(Cl)c1
60 | 63.1 | Cc1cc(C)cc(-c2ccc(N(C)CCN(C)C)c(/C=C3\C(=O)Nc4ccccc43)c2)c1
61 | 100 | O=C1Nc2ccccc2/C1=C/c1c[nH]c2ccc(F)cc12
62 | 3.16 | O=C1Nc2cc(Br)ccc2/C1=C/c1c[nH]c2ccccc12
63 | 50.1 | Cc1cc(C(=O)NCCCC2CCN(C=O)CC2)[nH]c1/C=C1\C(=O)Nc2ccccc21
64 | 794 | Cc1cc(C)c(/C=C2\C(=O)Nc3ccc(O)cc32)[nH]1
65 | 63.1 | O=C1Nc2ccccc2/C1=C\c1cc(OC(F)(F)F)ccc1O

Row | IC50 [nM] | Structure (SMILES)
66 | 794 | COc1ccc(OC)c(/C=C2/C(=O)Nc3cc(S(C)(=O)=O)ccc32)c1
67 | 1 | Cc1[nH]c(/C=C2\C(=O)N(O)c3ccccc32)c(C)c1Br
68 | 1 | N#Cc1ccc2c(c1)/C(=C/c1c[nH]c3ccccc13)C(=O)N2
69 | 10 | COc1ccc(Br)cc1/C=C1/C(=O)Nc2ccccc21
70 | 100 | Cc1cc(C(=O)NCCCCCCO)[nH]c1/C=C1\C(=O)Nc2ccccc21
71 | 3.98 | O=C1Nc2ccccc2/C1=C\c1ccc(-c2ccccc2)o1
72 | 50.1 | Cc1[nH]c(/C=C2\C(=O)Nc3ccccc32)c(C)c1CCC(=O)O
73 | 31.6 | COc1ccc(OC)c(/C=C2/C(=O)Nc3cc(Cl)ccc32)c1
74 | 631 | Cc1ccc(/C=C2\C(=O)Nc3ccccc32)c(C)c1
75 | 10 | CCOC(=O)c1cc(C)c(/C=C2\C(=O)Nc3ccccc32)[nH]1 [drawing 139]
76 | 10 | CON1C(=O)/C(=C\c2[nH]c(C)cc2C)c2ccccc21
77 | 0.2 | CCCn1cc(/C=C2\C(=O)Nc3ccccc32)c2ccccc21 [drawing 137]
78 | 3.16 | O=C1Nc2cc(F)ccc2/C1=C/c1c[nH]c2ccccc12
79 | 10 | O=C1Nc2ccccc2/C1=C\c1cccc(Cl)c1
80 | 3.98 | Cc1cccc2c(/C=C3/C(=O)Nc4ccccc43)c[nH]c12
81 | 1 | Cc1ccc(/C=C2/C(=O)Nc3ccccc32)c(C)c1
82 | 39.8 | CCOC(=O)CCCNC(=O)c1cc(C)c(/C=C2\C(=O)Nc3ccccc32)[nH]1
83 | 6.31 | Cc1cc(C[n+]2ccccc2)[nH]c1/C=C1\C(=O)Nc2ccccc21

Same assay, conditions: PBMC, approximately 46 hours, read-out: IL-2 pIC50 (converted)

Row | Structure (SMILES) | IC50 [nM]
84 | Cc1cc(C)c(/C=C2\C(=O)Nc3ccccc32)[nH]1 | 0.2
